From article PMC6174881 (Journal of medicinal chemistry, 2018)
Several values for one entry are separate records, joined by “and”; a condition that tells them apart may be missing. Equal values may be shown once. Blank lines part the entries; values can stand above or below the compound they belong to. Square brackets hold non-standard residues; d marks the D form. Peptide text beside a SMILES is read from it. hPhe = N[C@@H](CCc1ccccc1)C(=O)O; Nle = CCCC[C@H](N)C(=O)O; Dap = NC[C@H](N)C(=O)O

Tests used:
mMC4R = mMC4R (Mus musculus, UniProt P56450); conditions: for fold increase in potency at the mMC4R compared to 1: calculated using Ki values from Schild analysis; for selectivity for the mMC4R over the mMC3R: calculated using antagonist Ki values
mMC4R, sequence (P56450 whole entry): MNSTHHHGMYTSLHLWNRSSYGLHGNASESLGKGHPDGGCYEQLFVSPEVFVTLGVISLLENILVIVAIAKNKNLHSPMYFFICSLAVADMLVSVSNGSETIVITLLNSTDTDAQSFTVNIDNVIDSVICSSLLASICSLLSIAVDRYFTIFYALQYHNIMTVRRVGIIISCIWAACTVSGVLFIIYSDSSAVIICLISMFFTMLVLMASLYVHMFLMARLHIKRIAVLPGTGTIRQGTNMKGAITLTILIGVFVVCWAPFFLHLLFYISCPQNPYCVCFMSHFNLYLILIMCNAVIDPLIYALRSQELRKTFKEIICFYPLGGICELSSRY

mMC5R = mMC5R (Mus musculus, UniProt P41149); assay: AlphaScreen cAMP assay, agonist/inverse agonist activity at mMC5R; conditions: for mMC5R activity in words: up to 100 μM
mMC5R, sequence (P41149 whole entry): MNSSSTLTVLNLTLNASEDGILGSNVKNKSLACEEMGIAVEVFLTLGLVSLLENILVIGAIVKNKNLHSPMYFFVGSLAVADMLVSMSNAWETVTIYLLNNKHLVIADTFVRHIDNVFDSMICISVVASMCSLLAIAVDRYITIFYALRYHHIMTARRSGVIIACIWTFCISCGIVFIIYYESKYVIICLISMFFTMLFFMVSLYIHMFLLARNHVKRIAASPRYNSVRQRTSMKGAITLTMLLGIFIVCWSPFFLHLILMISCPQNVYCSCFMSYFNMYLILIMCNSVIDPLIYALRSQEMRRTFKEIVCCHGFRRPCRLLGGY

mMC3R = mMC3R (Mus musculus, UniProt P33033); conditions: for fold increase in potency at the mMC3R compared to 1: calculated using Ki values from Schild analysis
mMC3R, sequence (P33033 whole entry): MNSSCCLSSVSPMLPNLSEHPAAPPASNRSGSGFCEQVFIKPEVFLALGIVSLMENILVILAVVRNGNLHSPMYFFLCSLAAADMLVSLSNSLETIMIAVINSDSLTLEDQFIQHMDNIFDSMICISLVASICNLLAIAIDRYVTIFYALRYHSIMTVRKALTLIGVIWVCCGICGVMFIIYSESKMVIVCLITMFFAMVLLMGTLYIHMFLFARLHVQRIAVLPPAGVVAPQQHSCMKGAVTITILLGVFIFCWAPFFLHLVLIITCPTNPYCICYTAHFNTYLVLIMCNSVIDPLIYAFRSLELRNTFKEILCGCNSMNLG

mMC1R = mMC1R (Mus musculus, UniProt Q01727); conditions: up to 100 μM
mMC1R, sequence (Q01727 whole entry): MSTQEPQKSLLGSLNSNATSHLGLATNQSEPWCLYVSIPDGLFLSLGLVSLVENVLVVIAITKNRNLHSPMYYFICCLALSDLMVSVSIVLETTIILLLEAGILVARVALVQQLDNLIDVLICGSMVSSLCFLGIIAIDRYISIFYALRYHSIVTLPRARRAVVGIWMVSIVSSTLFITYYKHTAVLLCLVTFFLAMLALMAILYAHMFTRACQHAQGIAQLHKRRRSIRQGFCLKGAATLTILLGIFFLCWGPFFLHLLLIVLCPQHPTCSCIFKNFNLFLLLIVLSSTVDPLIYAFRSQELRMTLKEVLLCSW

[1] = Schild analysis with agonist NDP-MSH, pA2 = −log[Ki]

fold increase in potency at the mMC4R compared to 1 (mMC4R): ≤ 10 fold
mMC5R inverse agonist efficacy −X% @ 100 μM (mMC5R; at 100 μM relative to basal, no sigmoidal dose-response): −35% @ 100μM
mMC5R activity in words (mMC5R): inverse agonist activity was observed
SMILES: CCCC[C@@H]1NC(=O)[C@H](CO)NC(=O)[C@H](CC(N)=O)NC(=O)[C@H](Cc2ccccc2)NC(=O)[C@H](Cc2ccccc2)NC(=O)[C@H](CCCNC(=N)N)NC(=O)[C@@H]2CCCN2C(=O)[C@H]2CCCN2C1=O [Compound 4, c[Pro-Arg-Phe-Phe-Asn-Ser-Nle-DPro]] (cyclo(RFFNS[Nle][dP]P))

fold increase in potency at the mMC4R compared to 1 (mMC4R): ≥ 10 fold
SMILES: CCCC[C@@H]1NC(=O)[C@H](CO)NC(=O)[C@H](CN)NC(=O)[C@H](Cc2ccccc2)NC(=O)[C@H](Cc2ccccc2)NC(=O)[C@H](CCCNC(=N)N)NC(=O)[C@@H]2CCCN2C(=O)[C@H]2CCCN2C1=O [Compound 8, c[Pro-Arg-Phe-Phe-Dap-Ser-Nle-DPro]] (cyclo(RFF[Dap]S[Nle][dP]P))

fold increase in potency at the mMC4R compared to 1 (mMC4R): ≥ 10 fold
fold increase in potency at the mMC3R compared to 1 (mMC3R): greater than 10 fold
SMILES: CCCC[C@@H]1NC(=O)[C@H](C)NC(=O)[C@H](CCCNC(=N)N)NC(=O)[C@H](Cc2ccccc2)NC(=O)[C@H](Cc2ccccc2)NC(=O)[C@H](CCCNC(=N)N)NC(=O)[C@@H]2CCCN2C(=O)[C@H]2CCCN2C1=O [Compound 10, c[Pro-Arg-Phe-Phe-Arg-Ala-Nle-DPro]] (cyclo(RFFRA[Nle][dP]P))

fold increase in potency at the mMC4R compared to 1 (mMC4R): ≥ 10 fold
SMILES: CCCC[C@@H]1NC(=O)[C@H](CO)NC(=O)[C@H](CCCNC(=N)N)NC(=O)[C@H](Cc2ccccc2)NC(=O)[C@H](Cc2ccccc2)NC(=O)[C@H](CCCNC(=N)N)NC(=O)[C@@H]2CCCN2C(=O)[C@H]2CCCN2C1=O [Compound 12, c[Pro-Arg-Phe-Phe-Arg-Ser-Nle-DPro]] (cyclo(RFFRS[Nle][dP]P))

mMC1R agonist activity in words (mMC1R): did not possess agonist activity
SMILES: CCCC[C@@H]1NC(=O)[C@H](C)NC(=O)[C@H](CC(N)=O)NC(=O)[C@H](CCc2ccccc2)NC(=O)[C@H](Cc2ccccc2)NC(=O)[C@H](CCCNC(=N)N)NC(=O)[C@@H]2CCCN2C(=O)[C@H]2CCCN2C1=O [Compound 14, c[Pro-Arg-Phe-hPhe-Asn-Ala-Nle-DPro]]

SMILES: CCCC[C@@H]1NC(=O)[C@H](CO)NC(=O)[C@H](CC(N)=O)NC(=O)[C@H](CCc2ccccc2)NC(=O)[C@H](Cc2ccccc2)NC(=O)[C@H](CCCNC(=N)N)NC(=O)[C@@H]2CCCN2C(=O)[C@H]2CCCN2C1=O [Compound 16, c[Pro-Arg-Phe-hPhe-Asn-Ser-Nle-DPro]] (cyclo(RF[hPhe]NS[Nle][dP]P))
fold more potent than AGRP at the mMC4R (mMC4R): 3–6 fold
Antagonist mMC4R pA2 (mMC4R; [1]): 9.23
selectivity for the mMC4R over the mMC3R (mMC4R): 600–800 fold and 800 fold
mMC5R activity in words (mMC5R): did not result in mMC5R stimulation
Antagonist mMC3R pA2 (mMC3R; [1]): 6.33

mMC1R agonist activity in words (mMC1R): did not possess agonist activity
SMILES: CCCC[C@@H]1NC(=O)[C@H](C)NC(=O)[C@H](CN)NC(=O)[C@H](CCc2ccccc2)NC(=O)[C@H](Cc2ccccc2)NC(=O)[C@H](CCCNC(=N)N)NC(=O)[C@@H]2CCCN2C(=O)[C@H]2CCCN2C1=O [Compound 18, c[Pro-Arg-Phe-hPhe-Dap-Ala-Nle-DPro]] (cyclo(RF[hPhe][Dap]A[Nle][dP]P))

SMILES: CCCC[C@@H]1NC(=O)[C@H](CO)NC(=O)[C@H](CN)NC(=O)[C@H](CCc2ccccc2)NC(=O)[C@H](Cc2ccccc2)NC(=O)[C@H](CCCNC(=N)N)NC(=O)[C@@H]2CCCN2C(=O)[C@H]2CCCN2C1=O [Compound 20, c[Pro-Arg-Phe-hPhe-Dap-Ser-Nle-DPro]] (cyclo(RF[hPhe][Dap]S[Nle][dP]P))
fold more potent than AGRP at the mMC4R (mMC4R): 3–6 fold
fold increase in potency at the mMC4R compared to 1 (mMC4R): 25 fold
selectivity for the mMC4R over the mMC3R (mMC4R): 600–800 fold and 600 fold
mMC5R activity in words (mMC5R): did not result in mMC5R stimulation

fold increase in potency at the mMC3R compared to 1 (mMC3R): greater than 10 fold
SMILES: N=C(N)NCCC[C@@H]1NC(=O)[C@H](CCc2ccccc2)NC(=O)[C@H](Cc2ccccc2)NC(=O)[C@H](CCCNC(=N)N)NC(=O)[C@@H]2CCCN2C(=O)[C@H]2CCCN2C(=O)[C@H](Cc2ccccc2)NC(=O)[C@H](CO)NC1=O [Compound 23, c[Pro-Arg-Phe-hPhe-Arg-Ser-Phe-DPro]] (cyclo(RF[hPhe]RSF[dP]P))
